Ten molecules from patent US12447153B2, “HER2 mutation inhibitors” (Array BioPharma Inc., priority 2021, dated 2025) can be followed below.

One assay deals with EGFR (Homo sapiens (Human), UniProt P00533). The assay is described as follows: ErbB Enzyme Assay (HTRF KinEASE-TK), Assay 3. In kind it is biochemical. Here is the method:
The kinases were incubated with 250 nM TK-substrate biotin (CisBio, part of cat #62TKOPEC) at 1 mM ATP along with test compounds in a buffer consisting of 25 mM HEPES, pH 7.4, 10 mM MgCl2, 0.01% Triton X-100, and 2% DMSO in a volume of 8 μL. […] After 30-minute incubation at 22° C., the reaction was quenched by adding 8 μL of quench solution containing 62.5 nM Sa-XL665 and 0.25×TK-Ab-Cryptate in HTRF detection buffer (all from CisBio, part of cat #62TKOPEC). […] A 4-parameter logistic curve was fit to the POC values as a function of the concentration of compound, and the IC50 value was the point where the best-fit curve crossed 50 POC.
On the technique in general: In TR-FRET formats the signal depends on donor and acceptor labels being close together.

Assay [1] has as its target ErbB2 with Exon 20 YVMA insertion (HER2-YVMA) (Homo sapiens (Human), UniProt P04626, INS775YVMA). The assay is described as follows: Cellular Phosphorylation Assay, Assay 4 (constitutive ErbB2 phosphorylation, NIH 3T3 cells). In kind it is cell-based. Here is the method: (§1) NIH 3T3 cells were engineered to express ErbB2 with Exon 20 YVMA insertion (HER2-YVMA (SEQ ID NO: 2); Assay 4) or EGFR wild type (EGFR WT; Assay 5) with constructs obtained from GenScript and grown in DMEM supplemented with 10% fetal bovine serum and 15 μg/ml blasticidin. […] Serially diluted compounds were added to the plates for 1 hour at 37° C./5% CO2. EGFR WT cells were stimulated with 100 ng/ml rEGF for an additional 10 minutes at 37° C./5% CO2.
(§2) After compound incubation, medium was removed from the cells, which were then fixed in 3.7% formaldehyde in PBS at room temperature for 20 minutes. Following a wash with PBS, cells were permeabilized with 100% methanol at room temperature for 10 minutes. Cells were then washed with PBS/0.05% Tween-20 and blocked with Odyssey blocking buffer (LI-COR Biosciences) for at least 1 hour at room temperature. Antibodies to phosphorylated ErbB2 (Y1196, Cell Signaling #6942) or phosphorylated EGFR (Y1068, Cell Signaling #3777) and GAPDH (Millipore #MAB374) were added to the cells in blocking buffer containing 0.05% azide and incubated overnight at 4° C. After washing with PBS/0.05% Tween-20, the cells were incubated with fluorescently labeled secondary anti-rabbit antibody (LiCOR, IRDye 800CW #926-32211) and anti-mouse antibody (Molecular Probes, Alexa Fluor 680 #A21058) for 1 hour at room temperature in the dark. Cells were then washed and analyzed for fluorescence at both wavelengths using the Odyssey Infrared Imaging System (LI-COR Biosciences). Phosphorylated ErbB2 and EGFR signal was normalized to GAPDH signal to generate curves and calculate IC50 values.

For the next assay, the target named is EGFR wild type (EGFR WT) (Homo sapiens (Human), UniProt P00533). The assay is described as follows: Cellular Phosphorylation Assay, Assay 5 (EGF-stimulated EGFR phosphorylation, NIH 3T3 cells). It counts as cell-based. Here is the method: as §1, §2
A further assay addresses ErbB2 WT (Homo sapiens (Human), UniProt P04626). The assay is described as follows: ErbB Enzyme Assay (HTRF KinEASE-TK), Assay 2. In kind it is biochemical. As for the experimental part: The kinases were incubated with 250 nM TK-substrate biotin (CisBio, part of cat #62TKOPEC) at 1 mM ATP along with test compounds in a buffer consisting of 25 mM HEPES, pH 7.4, 10 mM MgCl2, 0.01% Triton X-100, and 2% DMSO in a volume of 8 μL. […] After 30-minute incubation at 22° C., the reaction was quenched by adding 8 μL of quench solution containing 62.5 nM Sa-XL665 and 0.25×TK-Ab-Cryptate in HTRF detection buffer (all from CisBio, part of cat #62TKOPEC).

Setting [2] is: cellular ErbB2 YVMA phosphorylation.
Setting [3] is: cellular EGFR WT phosphorylation, EGF-stimulated.
Where [4] appears, read: EGF-stimulated EGFR WT phosphorylation.

Sequence of ErbB2 with Exon 20 YVMA insertion (HER2-YVMA) (P04626 other isoform, or with tags, fused parts or gaps ins YVMA behind 775): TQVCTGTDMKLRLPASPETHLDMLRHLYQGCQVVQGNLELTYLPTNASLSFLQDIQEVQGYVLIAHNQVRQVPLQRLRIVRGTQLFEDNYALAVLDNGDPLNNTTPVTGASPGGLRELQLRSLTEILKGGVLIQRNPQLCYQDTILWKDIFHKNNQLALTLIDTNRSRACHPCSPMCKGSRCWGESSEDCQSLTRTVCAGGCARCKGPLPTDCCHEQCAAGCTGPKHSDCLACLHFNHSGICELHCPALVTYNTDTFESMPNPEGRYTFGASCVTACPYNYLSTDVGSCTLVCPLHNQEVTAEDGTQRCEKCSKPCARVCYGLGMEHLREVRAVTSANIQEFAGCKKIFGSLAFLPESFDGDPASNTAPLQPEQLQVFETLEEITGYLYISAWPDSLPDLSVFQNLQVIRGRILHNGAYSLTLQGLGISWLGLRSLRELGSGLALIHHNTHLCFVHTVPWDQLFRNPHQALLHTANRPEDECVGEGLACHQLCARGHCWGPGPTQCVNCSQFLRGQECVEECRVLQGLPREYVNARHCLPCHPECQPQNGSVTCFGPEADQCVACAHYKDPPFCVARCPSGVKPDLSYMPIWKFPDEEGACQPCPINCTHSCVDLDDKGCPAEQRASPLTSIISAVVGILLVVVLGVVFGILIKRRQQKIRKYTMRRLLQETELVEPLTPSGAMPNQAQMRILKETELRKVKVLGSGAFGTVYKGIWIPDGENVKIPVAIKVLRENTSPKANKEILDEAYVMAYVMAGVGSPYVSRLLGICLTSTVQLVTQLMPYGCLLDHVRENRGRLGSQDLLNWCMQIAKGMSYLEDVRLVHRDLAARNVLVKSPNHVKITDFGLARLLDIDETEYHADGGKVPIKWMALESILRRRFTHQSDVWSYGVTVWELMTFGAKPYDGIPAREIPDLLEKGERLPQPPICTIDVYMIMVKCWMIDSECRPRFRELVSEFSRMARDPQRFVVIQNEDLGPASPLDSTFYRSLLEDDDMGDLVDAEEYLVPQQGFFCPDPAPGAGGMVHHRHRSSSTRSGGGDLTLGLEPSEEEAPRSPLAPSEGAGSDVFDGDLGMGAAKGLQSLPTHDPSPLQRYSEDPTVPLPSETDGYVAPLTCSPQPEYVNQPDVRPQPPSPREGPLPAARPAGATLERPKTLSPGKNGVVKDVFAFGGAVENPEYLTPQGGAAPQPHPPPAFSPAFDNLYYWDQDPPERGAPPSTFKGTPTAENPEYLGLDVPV
Sequence of EGFR (P00533 25-1210): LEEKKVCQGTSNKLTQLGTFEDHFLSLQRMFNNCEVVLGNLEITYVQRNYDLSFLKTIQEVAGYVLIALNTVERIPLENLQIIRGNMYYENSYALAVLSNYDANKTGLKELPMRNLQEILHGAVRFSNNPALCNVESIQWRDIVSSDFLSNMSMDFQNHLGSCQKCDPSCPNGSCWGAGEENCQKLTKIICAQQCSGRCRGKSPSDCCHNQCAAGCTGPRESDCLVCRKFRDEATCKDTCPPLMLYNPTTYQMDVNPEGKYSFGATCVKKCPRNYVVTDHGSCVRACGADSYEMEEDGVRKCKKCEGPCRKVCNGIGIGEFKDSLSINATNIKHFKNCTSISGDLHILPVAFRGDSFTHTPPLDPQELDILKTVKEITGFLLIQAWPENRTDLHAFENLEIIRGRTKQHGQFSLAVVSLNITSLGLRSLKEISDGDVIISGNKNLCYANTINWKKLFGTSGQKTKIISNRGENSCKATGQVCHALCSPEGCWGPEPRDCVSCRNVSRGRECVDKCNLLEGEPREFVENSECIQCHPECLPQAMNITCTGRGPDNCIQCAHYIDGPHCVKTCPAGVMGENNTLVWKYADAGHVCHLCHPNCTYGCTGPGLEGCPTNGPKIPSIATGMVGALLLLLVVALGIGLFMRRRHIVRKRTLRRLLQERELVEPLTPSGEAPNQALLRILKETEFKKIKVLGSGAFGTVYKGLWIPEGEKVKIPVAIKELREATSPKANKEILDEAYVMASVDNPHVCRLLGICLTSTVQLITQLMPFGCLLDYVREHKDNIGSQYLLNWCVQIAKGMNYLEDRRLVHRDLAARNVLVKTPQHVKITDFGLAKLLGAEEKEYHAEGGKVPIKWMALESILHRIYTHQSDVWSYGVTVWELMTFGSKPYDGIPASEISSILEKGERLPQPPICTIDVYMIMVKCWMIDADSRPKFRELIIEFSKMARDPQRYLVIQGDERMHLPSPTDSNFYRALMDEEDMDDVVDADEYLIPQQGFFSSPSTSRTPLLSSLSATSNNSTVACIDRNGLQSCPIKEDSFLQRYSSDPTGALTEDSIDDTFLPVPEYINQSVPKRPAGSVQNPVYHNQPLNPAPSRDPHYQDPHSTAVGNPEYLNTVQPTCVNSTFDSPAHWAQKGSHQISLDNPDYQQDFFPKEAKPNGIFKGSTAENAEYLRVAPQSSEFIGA
Sequence of EGFR wild type (EGFR WT) (P00533 25-1210): as above
Sequence of ErbB2 WT (P04626 23-1255): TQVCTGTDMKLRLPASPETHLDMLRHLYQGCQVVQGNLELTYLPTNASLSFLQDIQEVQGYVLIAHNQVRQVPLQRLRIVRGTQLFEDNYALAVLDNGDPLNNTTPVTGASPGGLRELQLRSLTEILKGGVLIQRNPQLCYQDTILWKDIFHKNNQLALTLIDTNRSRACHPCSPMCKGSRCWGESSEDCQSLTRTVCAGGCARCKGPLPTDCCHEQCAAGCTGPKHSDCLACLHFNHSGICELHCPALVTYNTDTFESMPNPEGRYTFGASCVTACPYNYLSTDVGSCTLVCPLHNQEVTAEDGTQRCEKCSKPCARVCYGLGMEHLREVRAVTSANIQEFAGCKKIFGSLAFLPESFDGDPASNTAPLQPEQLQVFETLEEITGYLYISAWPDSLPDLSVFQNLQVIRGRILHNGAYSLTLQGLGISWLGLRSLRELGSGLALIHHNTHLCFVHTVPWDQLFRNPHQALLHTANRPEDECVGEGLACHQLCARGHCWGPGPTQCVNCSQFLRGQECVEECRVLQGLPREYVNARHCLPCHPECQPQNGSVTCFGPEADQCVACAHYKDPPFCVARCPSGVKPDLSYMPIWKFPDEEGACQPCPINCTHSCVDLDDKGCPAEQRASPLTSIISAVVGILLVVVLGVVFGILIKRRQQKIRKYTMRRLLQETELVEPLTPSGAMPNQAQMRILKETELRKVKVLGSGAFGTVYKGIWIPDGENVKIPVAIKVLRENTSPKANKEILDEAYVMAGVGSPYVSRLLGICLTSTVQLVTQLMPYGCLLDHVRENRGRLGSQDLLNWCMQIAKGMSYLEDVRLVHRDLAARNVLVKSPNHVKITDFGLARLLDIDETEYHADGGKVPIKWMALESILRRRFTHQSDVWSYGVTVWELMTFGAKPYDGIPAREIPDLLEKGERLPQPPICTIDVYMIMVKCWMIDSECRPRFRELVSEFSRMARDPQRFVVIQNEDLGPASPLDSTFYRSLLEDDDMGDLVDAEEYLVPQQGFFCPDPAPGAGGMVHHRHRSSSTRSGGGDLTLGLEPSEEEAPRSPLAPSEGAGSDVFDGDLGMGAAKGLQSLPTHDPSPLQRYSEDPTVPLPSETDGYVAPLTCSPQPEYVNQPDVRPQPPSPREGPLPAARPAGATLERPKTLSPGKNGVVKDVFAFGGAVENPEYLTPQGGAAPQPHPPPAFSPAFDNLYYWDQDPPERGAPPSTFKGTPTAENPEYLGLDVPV

A word on the IC50: it is the concentration needed to halve the response being measured. Read a high IC50 as weaker potency. As to `C=CC(=O)N1CCN(c2ccc3ncnc(Nc4ccc(Oc5ccn6ncnc6c5)c(Cl)c4F)c3n2)C[C@H]1C(C)C` [Example 291], the IC50 was 462 nM on EGFR (EGFR enzyme assay), 9.5 nM in assay [1] (setting [2]), 276 nM on EGFR wild type (EGFR WT) (setting [3]) and 14.9 nM against ErbB2 WT (ErbB2 WT enzyme assay).
Taken in the same sequence, the figures for `C=CC(=O)N1[C@H](C)CN(c2ccc3ncnc(Nc4cc(C)c(Oc5ccn6ncnc6c5)cc4F)c3n2)C[C@@H]1C` [Example 263] were at least 10000 nM, 204 nM, at least 5000 nM and 148 nM.
On to `C=C(F)C(=O)N1CCN(c2ccc3ncnc(Nc4ccc(Oc5ccn6ncnc6c5)c(C)c4F)c3n2)CC1(C)C` [Example 187, 1-(4-(4-((4-([1,2,4]triazolo[1,5-a]pyridin-7-yloxy)-2-fluoro-3-methylphenyl)amino)pyrido[3,2-d]pyrimidin-6-yl)-2,2-dimethylpiperazin-1-yl)-2-fluoroprop-2-en-1-one], for which the IC50 was at least 10000 nM against EGFR (EGFR enzyme), 273 nM in assay [1] (ErbB2 YVMA phosphorylation), at least 5000 nM on EGFR wild type (EGFR WT) (setting [4]) and 100 nM against ErbB2 WT (ErbB2 WT enzyme).
As for `Cc1c(Oc2ccn3ncnc3c2)ccc(Nc2ncnc3ccc(N4CCN(C(=O)C56CC5C6)C(C)(C)C4)nc23)c1F` (stereo not drawn) [Example 186, (4-(4-((4-([1,2,4]triazolo[1,5-a]pyridin-7-yloxy)-2-fluoro-3-methylphenyl)amino)pyrido[3,2-d]pyrimidin-6-yl)-2,2-dimethylpiperazin-1-yl)(bicyclo[1.1.0]butan-1-yl)methanone], the IC50 is 408 nM in assay [1] (ErbB2 YVMA phosphorylation), at least 5000 nM against EGFR wild type (EGFR WT) (setting [4]) and 69.1 nM on ErbB2 WT (ErbB2 WT enzyme).
As to `C=CS(=O)(=O)N(C)c1ccc2ncnc(Nc3ccc(Oc4ccc5c(c4)ncn5C)c(C)c3)c2n1` [Example 21, N-methyl-N-(4-((3-methyl-4-((1-methyl-1H-benzo[d]imidazol-5-yl)oxy)phenyl)amino)pyrido[3,2-d]pyrimidin-6-yl)ethenesulfonamide], the IC50 was determined as 466 nM against EGFR (EGFR enzyme), 250 nM in assay [1] (ErbB2 YVMA phosphorylation) and 83.2 nM against ErbB2 WT (ErbB2 WT enzyme).
In the case of `C=CS(=O)(=O)Nc1ccc2ncnc(Nc3ccc(Oc4ccc5c(c4)ncn5C)c(C)c3)c2n1` [Example 20, N-(4-((3-methyl-4-((1-methyl-1H-benzo[d]imidazol-5-yl)oxy)phenyl)amino)pyrido[3,2-d]pyrimidin-6-yl)ethenesulfonamide], the IC50 is 340 nM on EGFR (EGFR enzyme), 1740 nM in assay [1] (ErbB2 YVMA phosphorylation) and 47.9 nM on ErbB2 WT (ErbB2 WT enzyme).
For `C=CC(=O)N(C)c1ccc2ncnc(Nc3ccc(Oc4ccc5c(c4)ncn5C)c(C)c3)c2n1` [Example 23, N-methyl-N-(4-((3-methyl-4-((1-methyl-1H-benzo[d]imidazol-5-yl)oxy)phenyl)amino)pyrido[3,2-d]pyrimidin-6-yl)acrylamide], the IC50 on EGFR (EGFR enzyme) is 709 nM; in assay [1] (ErbB2 YVMA phosphorylation), 63.9 nM; on ErbB2 WT (ErbB2 WT enzyme), 72.7 nM.
`CC#CC(=O)N1C[C@@H]2CC[C@H]1CN2c1ccc2ncnc(Nc3ccc(Oc4ccn5ncnc5c4)c(C)c3F)c2n1` [Example 329]: the IC50 amounted to 73.7 nM in assay [1] (setting [2]), 1420 nM against EGFR wild type (EGFR WT) (setting [3]) and 103 nM on ErbB2 WT (ErbB2 WT enzyme assay).
Turning to `C=CC(=O)Nc1ccc2ncnc(Nc3ccc(Oc4ccc5c(c4)ncn5C)c(C)c3)c2n1` [Example 18, N-(4-((3-methyl-4-((1-methyl-1H-benzo[d]imidazol-5-yl)oxy)phenyl)amino)pyrido[3,2-d]pyrimidin-6-yl)acrylamide], the results for the IC50 (against EGFR (EGFR enzyme); in assay [1] (ErbB2 YVMA phosphorylation); against ErbB2 WT (ErbB2 WT enzyme)) were 369 nM, 443 nM and 42.3 nM, respectively.
Taken in the same sequence, the figures for `CC#CC(=O)Nc1ccc2ncnc(Nc3ccc(Oc4ccc5c(c4)ncn5C)c(C)c3)c2n1` [Example 19, N-(4-((3-methyl-4-((1-methyl-1H-benzo[d]imidazol-5-yl)oxy)phenyl)amino)pyrido[3,2-d]pyrimidin-6-yl)but-2-ynamide] were 205 nM, 87.8 nM and 17.8 nM.
